Experimental data as given in patent publication EP2966079B1, “PYRIDOPYRIMIDINE OR PYRIMIDOPYRIMIDINE COMPOUND, PREPARATION METHOD, PHARMACEUTICAL COMPOSITION AND USE THEREOF” (Shanghai Institute of Materia Medica, Chinese Academy of …, priority 2013, dated 2014).

What was measured:
[1] = tested on: human prostate cancer LNCap; experiment: Cell proliferation assay (MTS method), LNCap; format: cell-based; settings: 72 h, LNCap cells, cultured with compound for 3 days
Description: (§1) Cell proliferation assay was based on two types of cell lines, i.e., human brain glioma U87MG and human prostate cancer LNCap, both of which were from ATCC. U87MG and LNCap contain PTEN gene deletion, and belongs to mTOR signal-dependent tumor cells. Cell culture media and related reagents were from GIBCO. U87MG cells were cultured in a MEM complete medium (containing 10% fetal bovine serum, 100 U/mL penicillin and 100 µg/mL streptomycin). […] Cells/compound was cultured for 3 days, and MTS method was used to test cell proliferation. MTS and PMS were purchased from Sigma company, a stock solution of MTS/PMS (20:1) was added into the test cells with 20 µL/well. After a suitable time of incubation, the proliferation assay results was recorded on a 96 well plate microplate reader. Relative cell viability% = (A490valueofadministeredgroup−lightvalueoftheblankgroup)/(lightvalueofDMSOgroup−lightvalueofblankgroup) × 100%. [formula]
(§2) The experimental data were processed with Microsoft Office Excel and Graphpad PRISM 5 to calculate IC50.

human brain glioma U87MG = experiment: Cell proliferation assay (MTS method), U87MG; format: cell-based; settings: U-87 MG, 72 h, U87MG cells, cultured with compound for 3 days
Description: as §1, §2

mTOR = mTOR (Homo sapiens, UniProt P42345); experiment: mTOR Kinase test (LANCE Ultra, ULight-4EBP1 substrate); format: biochemical; settings: 1.7 nM mTOR, 50 nM ULight-4EBP1, 100 µM ATP, 1.5 hours reaction
mTOR, sequence (P42345 1362-2549): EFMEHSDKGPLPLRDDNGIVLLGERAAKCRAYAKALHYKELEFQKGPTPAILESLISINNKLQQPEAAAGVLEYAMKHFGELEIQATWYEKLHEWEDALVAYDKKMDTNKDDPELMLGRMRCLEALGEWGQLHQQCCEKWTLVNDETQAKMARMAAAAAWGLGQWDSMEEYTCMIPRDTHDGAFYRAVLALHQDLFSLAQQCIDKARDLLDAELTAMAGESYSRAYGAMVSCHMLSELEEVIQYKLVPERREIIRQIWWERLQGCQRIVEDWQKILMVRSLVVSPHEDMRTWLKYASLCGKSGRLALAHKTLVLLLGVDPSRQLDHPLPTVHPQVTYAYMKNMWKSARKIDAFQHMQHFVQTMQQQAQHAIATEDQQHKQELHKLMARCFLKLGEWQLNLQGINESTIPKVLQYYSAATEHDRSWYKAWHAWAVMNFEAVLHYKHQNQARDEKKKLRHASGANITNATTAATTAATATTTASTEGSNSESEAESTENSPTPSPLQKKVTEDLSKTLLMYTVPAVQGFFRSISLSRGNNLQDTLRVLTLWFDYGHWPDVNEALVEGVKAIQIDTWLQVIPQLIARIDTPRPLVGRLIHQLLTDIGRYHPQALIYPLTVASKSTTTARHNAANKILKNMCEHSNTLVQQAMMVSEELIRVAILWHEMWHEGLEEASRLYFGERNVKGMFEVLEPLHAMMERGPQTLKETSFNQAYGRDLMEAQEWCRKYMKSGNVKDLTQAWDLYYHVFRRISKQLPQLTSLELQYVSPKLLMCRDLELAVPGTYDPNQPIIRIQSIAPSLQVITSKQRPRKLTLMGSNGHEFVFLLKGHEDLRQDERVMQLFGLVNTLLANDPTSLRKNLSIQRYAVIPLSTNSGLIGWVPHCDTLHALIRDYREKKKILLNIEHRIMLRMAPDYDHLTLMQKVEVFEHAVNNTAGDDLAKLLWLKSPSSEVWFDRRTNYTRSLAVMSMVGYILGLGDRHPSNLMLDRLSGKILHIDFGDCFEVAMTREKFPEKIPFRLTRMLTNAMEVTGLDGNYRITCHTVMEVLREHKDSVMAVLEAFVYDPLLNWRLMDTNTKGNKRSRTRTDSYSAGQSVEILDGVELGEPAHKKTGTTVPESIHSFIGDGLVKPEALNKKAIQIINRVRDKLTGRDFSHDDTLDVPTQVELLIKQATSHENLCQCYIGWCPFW

IC50 [1]: 21.4 µM | IC50 (human brain glioma U87MG): > 60 µM | IC50 (mTOR): > 20 µM
Structure (SMILES): COc1ccc(-c2cc3nc(N4C[C@@H](C)O[C@@H](C)C4)nc(N4C[C@@H](C)O[C@@H](C)C4)c3cn2)cc1CO [Compound 17, (5-(2,4-di((2S,6R)-2,6-dimethyl)pyrido[4,3-d]pyrimidin-7-yl)-2-methoxyphenyl)methanol]
